What was measured:
[1] = system: A549-ACE2; experiment: phospholipidosis EC50; higher = less potent phospholipidosis inducer
[2] = system: A549-ACE2 infected with SARS-CoV-2; experiment: morphology score (similarity to uninfected cells); higher = more like uninfected cells; details: 24 h
[3] = system: HepG2; experiment: cell viability relative to DMSO; higher = less toxic; details: 72 h
[4] = system: Vero E6; experiment: as above; details: 72 h
[5] = system: Caco-2; experiment: as above; details: 72 h
[6] = system: Calu-3; experiment: as above; details: 72 h
[7] = system: U2OS; experiment: as above; details: 72 h
[8] = system: HepG2; experiment: drug sensitivity score (DSS) for viability; higher = more toxic; extreme values may be limits of the assay; details: 72 h
[9] = system: Vero E6; experiment: as above; details: 72 h
[10] = system: Caco-2; experiment: as above; details: 72 h
[11] = system: Calu-3; experiment: as above; details: 72 h
[12] = system: U2OS; experiment: as above; details: 72 h
[13] = system: A549-ACE2 infected with SARS-CoV-2; experiment: cell count relative to DMSO; higher = less toxic; details: 24 h
[14] = system: A549-ACE2; experiment: drug-induced phospholipidosis relative to tamoxifen; higher = more phospholipidosis
[15] = system: Vero E6; experiment: relative viability EC50 (midpoint between 100% and the lowest measured viability); higher = less toxic; details: 72 h
[16] = system: Caco-2; experiment: as above; details: 72 h
[17] = system: Calu-3; experiment: as above; details: 72 h
[18] = system: U2OS; experiment: as above; details: 72 h
[19] = system: A549-ACE2 infected with SARS-CoV-2; experiment: SARS-CoV-2 infection rate relative to DMSO; higher = more infection; details: 24 h
[20] = system: HepG2; experiment: relative viability EC50 (midpoint between 100% and the lowest measured viability); higher = less toxic; details: 72 h

CCn1c2ccccc2c2cc(CNC)ccc21 [PhiKan-083]
Details | SARS-CoV-2 infection rate [%] | cell count [%] | cell viability [%] | morphology score | phospholipidosis EC50 [µM]
[1], 24 h | – | – | – | – | 5.19
[1], 48 h | – | – | – | – | 6.25
[1], 72 h | – | – | – | – | 6.91
[2], 0.3 µM | – | – | – | 0.23 | –
[2], 3 µM | – | – | – | 0.46 | –
[2], 10 µM | – | – | – | 0.75 | –
[2], 30 µM | – | – | – | 0.82 | –
[3], 1 nM | – | – | 98.2 | – | –
[3], 10 nM | – | – | 106 | – | –
[3], 100 nM | – | – | 97.4 | – | –
[3], 1000 nM | – | – | 99.3 | – | –
[3], 10000 nM | – | – | 68.3 | – | –
[4], 1 nM | – | – | 98.5 | – | –
[4], 10 nM | – | – | 103 | – | –
[4], 100 nM | – | – | 98.7 | – | –
[4], 1000 nM | – | – | 99.9 | – | –
[4], 10000 nM | – | – | 90.8 | – | –
[5], 1 nM | – | – | 102 | – | –
[5], 10 nM | – | – | 100 | – | –
[5], 100 nM | – | – | 102 | – | –
[5], 1000 nM | – | – | 105 | – | –
[5], 10000 nM | – | – | 108 | – | –
[6], 1 nM | – | – | 96.2 | – | –
[6], 10 nM | – | – | 99.9 | – | –
[6], 100 nM | – | – | 105 | – | –
[6], 1000 nM | – | – | 97.6 | – | –
[6], 10000 nM | – | – | 103 | – | –
[7], 1 nM | – | – | 99.4 | – | –
[7], 10 nM | – | – | 100 | – | –
[7], 100 nM | – | – | 99.2 | – | –
[7], 1000 nM | – | – | 99.7 | – | –
[7], 10000 nM | – | – | 98.8 | – | –
[13], 0.3 µM | – | 103 | – | – | –
[13], 3 µM | – | 105 | – | – | –
[13], 10 µM | – | 117 | – | – | –
[13], 30 µM | – | 119 | – | – | –
[19], 0.3 µM | 94 | – | – | – | –
[19], 3 µM | 79 | – | – | – | –
[19], 10 µM | 51 | – | – | – | –
[19], 30 µM | 16 | – | – | – | –

Details | drug sensitivity score | relative viability EC50 [µM]
[8] | 1.5 | –
[9] | 0 | –
[10] | 0 | –
[11] | 0 | –
[12] | 0 | –
[15] | – | > 10
[16] | – | > 10
[17] | – | > 10
[18] | – | > 10

drug-induced phospholipidosis [%], [14]
Details | 0.3 µM | 0.833333 µM | 3.33333 µM | 6.66667 µM | 10 µM | 30 µM
24 h | 2.5 | 2.35 | 26.5 | 64.2 | 83.4 | 97.2
48 h | 3.59 | 3.69 | 21.8 | 58.2 | 75.7 | 99.9
72 h | 3.02 | 2.71 | 17.3 | 49 | 70.8 | 95.9

Cn1cc(C2=C(c3ccc(Cl)cc3Cl)C(=O)NC2=O)c2ccccc21
Details | SARS-CoV-2 infection rate [%] | cell count [%] | cell viability [%] | morphology score | phospholipidosis EC50 [µM]
[1], 24 h | – | – | – | – | 6.83
[1], 48 h | – | – | – | – | 1.87
[1], 72 h | – | – | – | – | 3.22
[2], 0.3 µM | – | – | – | -0.36 | –
[2], 3 µM | – | – | – | -0.27 | –
[2], 10 µM | – | – | – | -0.07 | –
[2], 30 µM | – | – | – | -0.09 | –
[3], 1 nM | – | – | 98.8 | – | –
[3], 10 nM | – | – | 95 | – | –
[3], 100 nM | – | – | 100 | – | –
[3], 1000 nM | – | – | 95.1 | – | –
[3], 10000 nM | – | – | 87.2 | – | –
[4], 1 nM | – | – | 99.1 | – | –
[4], 10 nM | – | – | 98 | – | –
[4], 100 nM | – | – | 98.4 | – | –
[4], 1000 nM | – | – | 96.2 | – | –
[4], 10000 nM | – | – | 99.8 | – | –
[5], 1 nM | – | – | 105 | – | –
[5], 10 nM | – | – | 99.9 | – | –
[5], 100 nM | – | – | 92.5 | – | –
[5], 1000 nM | – | – | 105 | – | –
[5], 10000 nM | – | – | 93.1 | – | –
[6], 1 nM | – | – | 113 | – | –
[6], 10 nM | – | – | 108 | – | –
[6], 100 nM | – | – | 99.5 | – | –
[6], 1000 nM | – | – | 122 | – | –
[6], 10000 nM | – | – | 103 | – | –
[7], 1 nM | – | – | 100 | – | –
[7], 10 nM | – | – | 97.9 | – | –
[7], 100 nM | – | – | 97.8 | – | –
[7], 1000 nM | – | – | 100 | – | –
[7], 10000 nM | – | – | 97.8 | – | –
[13], 0.3 µM | – | 96 | – | – | –
[13], 3 µM | – | 94 | – | – | –
[13], 10 µM | – | 96 | – | – | –
[13], 30 µM | – | 91 | – | – | –
[19], 0.3 µM | 109 | – | – | – | –
[19], 3 µM | 101 | – | – | – | –
[19], 10 µM | 90 | – | – | – | –
[19], 30 µM | 91 | – | – | – | –

Details | drug sensitivity score | relative viability EC50 [µM]
[8] | 0.3 | –
[9] | 0 | –
[10] | 0 | –
[11] | 0 | –
[12] | 0 | –
[15] | – | > 10
[16] | – | > 10
[17] | – | > 10
[18] | – | > 10
[20] | – | > 10

drug-induced phospholipidosis [%], [14]
Details | 0.3 µM | 0.833333 µM | 3.33333 µM | 6.66667 µM | 10 µM | 30 µM
24 h | 3.42 | 26.9 | 57 | 74.1 | 90.2 | 107
48 h | 4.24 | 11.7 | 45.3 | 55.7 | 59.6 | 55.3
72 h | 4.76 | 5.3 | 35.3 | 56 | 56.2 | 54.6

CNCc1ccc(C)c(NC(=O)c2ccc(Nc3nc(-c4ccccc4)c4ccccc4n3)cc2)c1
Details | SARS-CoV-2 infection rate [%] | cell count [%] | cell viability [%] | morphology score | phospholipidosis EC50 [µM]
[1], 24 h | – | – | – | – | 1.58
[1], 48 h | – | – | – | – | 1.49
[1], 72 h | – | – | – | – | 2.07
[2], 0.1 µM | – | – | – | 0.21 | –
[2], 0.3 µM | – | – | – | 0.36 | –
[2], 1 µM | – | – | – | 0.34 | –
[2], 3 µM | – | – | – | 0.88 | –
[3], 1 nM | – | – | 107 | – | –
[3], 10 nM | – | – | 104 | – | –
[3], 100 nM | – | – | 105 | – | –
[3], 1000 nM | – | – | 88.3 | – | –
[3], 10000 nM | – | – | 36.8 | – | –
[4], 1 nM | – | – | 101 | – | –
[4], 10 nM | – | – | 99.6 | – | –
[4], 100 nM | – | – | 100 | – | –
[4], 1000 nM | – | – | 98.2 | – | –
[4], 10000 nM | – | – | 42.1 | – | –
[5], 1 nM | – | – | 93.8 | – | –
[5], 10 nM | – | – | 99.5 | – | –
[5], 100 nM | – | – | 90.1 | – | –
[5], 1000 nM | – | – | 98.3 | – | –
[5], 10000 nM | – | – | 25.4 | – | –
[6], 1 nM | – | – | 96.6 | – | –
[6], 10 nM | – | – | 101 | – | –
[6], 100 nM | – | – | 102 | – | –
[6], 1000 nM | – | – | 92 | – | –
[6], 10000 nM | – | – | 4.1 | – | –
[7], 1 nM | – | – | 100 | – | –
[7], 10 nM | – | – | 101 | – | –
[7], 100 nM | – | – | 103 | – | –
[7], 1000 nM | – | – | 100 | – | –
[7], 10000 nM | – | – | 35.3 | – | –
[13], 0.1 µM | – | 103 | – | – | –
[13], 0.3 µM | – | 101 | – | – | –
[13], 1 µM | – | 108 | – | – | –
[13], 3 µM | – | 127 | – | – | –
[19], 0.1 µM | 99 | – | – | – | –
[19], 0.3 µM | 86 | – | – | – | –
[19], 1 µM | 89 | – | – | – | –
[19], 3 µM | 24 | – | – | – | –

Details | drug sensitivity score | relative viability EC50 [µM]
[8] | 5.4 | –
[9] | 3.4 | –
[10] | 4.3 | –
[11] | 6.6 | –
[12] | 3.5 | –
[15] | – | 2.94
[16] | – | 3
[17] | – | 2.48
[18] | – | 3.21
[20] | – | 1.81

drug-induced phospholipidosis [%], [14]
Details | 0.3 µM | 0.833333 µM | 3.33333 µM | 6.66667 µM | 10 µM | 30 µM
24 h | 5.53 | 23.7 | 77.2 | 98.9 | 84.8 | 99.7
48 h | 5.67 | 17.1 | 89.4 | 102 | 92.4 | –
72 h | 1.97 | 13.2 | 86.2 | 99.1 | 115 | –

From the supplement of paper PMC13380429
